# Laboratory results as given in PubChem BioAssay (NCI).
#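 Cells were grown in 96-well plates and exposed to each compound for 48 hours at five concentrations; endpoints were interpolated linearly between bracketing concentrations, or set to the highest concentration if not reached. Definition used: TGI = concentration required for complete inhibition of growth.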
# Legend:
# Experiment in all cases: NCI-60 cell line screen, 48 h
# [1] = tested on: PC-3 prostate
# [2] = tested on: RXF 393 renal
# [3] = tested on: K-562 leukemia
# [4] = tested on: T-47D breast
# [5] = tested on: IGROV1 ovarian
# [6] = tested on: MDA-MB-231 breast
# [7] = tested on: NCI-H522 lung
# [8] = tested on: OVCAR-8 ovarian
# [9] = tested on: HOP-92 NSCLC
# [10] = tested on: HT29 colon
# [11] = tested on: HL-60(TB) leukemia
# [12] = tested on: MALME-3M melanoma
# [13] = tested on: CCRF-CEM leukemia
# [14] = tested on: OVCAR-5 ovarian
# [15] = tested on: SK-MEL-5 melanoma
# [16] = tested on: SNB-19 CNS
# [17] = tested on: UACC-257 melanoma
# [18] = tested on: 786-0 renal
# [19] = tested on: HS 578T breast
# [20] = tested on: SK-OV-3 ovarian
# [21] = tested on: SK-MEL-2 melanoma
# [22] = tested on: KM12 colon
# [23] = tested on: SF-295 CNS
# [24] = tested on: HCT-15 colon
# [25] = tested on: SF-539 CNS
# [26] = tested on: DU-145 prostate
# [27] = tested on: NCI-H226 lung
# [28] = tested on: SK-MEL-28 melanoma
# [29] = tested on: OVCAR-3 ovarian
# [30] = tested on: RPMI-8226 leukemia
# [31] = tested on: COLO 205 colon
# [32] = tested on: CAKI-1 renal
# [33] = tested on: MOLT-4 leukemia
# [34] = tested on: OVCAR-4 ovarian
# [35] = tested on: SNB-75 CNS
# [36] = tested on: UO-31 renal
# [37] = tested on: ACHN renal
# [38] = tested on: SN12C renal
# [39] = tested on: HCT-116 colon
# [40] = tested on: LOX IMVI melanoma
# [41] = tested on: MDA-MB-435
# [42] = tested on: SF-268 CNS
# [43] = tested on: SR leukemia
# [44] = tested on: MDA-N
# [45] = tested on: TK-10 renal
# [46] = tested on: NCI/ADR-RES ovarian
# [47] = tested on: UACC-62 melanoma
# [48] = tested on: MCF7 breast
# [49] = tested on: U251 CNS
# [50] = tested on: BT-549 breast
# [51] = tested on: NCI-H23 lung
# [52] = tested on: SW-620 colon
# [53] = tested on: A498 renal
# [54] = tested on: M14 melanoma
# [55] = tested on: HOP-62 NSCLC
# [56] = tested on: EKVX NSCLC
# [57] = tested on: HCC-2998 colon
# [58] = tested on: NCI-H460 lung
# [59] = tested on: A549 NSCLC
smiles,measurement,setting,value
COc1ccc(OC)c(NS(=O)(=O)c2ccc3nc(C)n(NS(=O)(=O)c4cc(OC)ccc4OC)c(=O)c3c2)c1,TGI,[1],> 100 µM
same,TGI,[2],> 100 µM
same,TGI,[3],> 100 µM
same,TGI,[4],> 100 µM
same,TGI,[5],> 100 µM
same,TGI,[6],> 100 µM
same,TGI,[7],> 100 µM
same,TGI,[8],> 100 µM
same,TGI,[9],> 100 µM
same,TGI,[10],> 100 µM
same,TGI,[11],> 100 µM
same,TGI,[12],> 100 µM
same,TGI,[13],> 100 µM
same,TGI,[14],> 100 µM
same,TGI,[15],> 100 µM
same,TGI,[16],> 100 µM
same,TGI,[17],> 100 µM
same,TGI,[18],> 100 µM
same,TGI,[19],> 100 µM
same,TGI,[20],> 100 µM
same,TGI,[21],> 100 µM
same,TGI,[22],> 100 µM
same,TGI,[23],> 100 µM
same,TGI,[24],> 100 µM
same,TGI,[25],> 100 µM
same,TGI,[26],> 100 µM
same,TGI,[27],> 100 µM
same,TGI,[28],> 100 µM
same,TGI,[29],> 100 µM
same,TGI,[30],> 100 µM
same,TGI,[31],> 100 µM
same,TGI,[32],> 100 µM
same,TGI,[33],62.7 µM
same,TGI,[34],> 100 µM
same,TGI,[35],> 100 µM
same,TGI,[36],> 100 µM
same,TGI,[37],> 100 µM
same,TGI,[38],> 100 µM
same,TGI,[39],> 100 µM
same,TGI,[40],> 100 µM
same,TGI,[41],> 100 µM
same,TGI,[42],> 100 µM
same,TGI,[43],> 100 µM
same,TGI,[44],> 100 µM
same,TGI,[45],> 100 µM
same,TGI,[46],> 100 µM
same,TGI,[47],> 100 µM
same,TGI,[48],> 100 µM
same,TGI,[49],> 100 µM
same,TGI,[50],> 100 µM
same,TGI,[51],> 100 µM
same,TGI,[52],> 100 µM
same,TGI,[53],> 100 µM
same,TGI,[54],> 100 µM
same,TGI,[55],> 100 µM
same,TGI,[56],> 100 µM
same,TGI,[57],> 100 µM
same,TGI,[58],> 100 µM
Cc1cc(C)c(NC(=S)NC(=O)c2ccccc2)cc1C,TGI,[1],> 100 µM
same,TGI,[2],> 100 µM
same,TGI,[3],> 100 µM
same,TGI,[4],> 100 µM
same,TGI,[5],> 100 µM
same,TGI,[6],> 100 µM
same,TGI,[7],> 100 µM
same,TGI,[8],> 100 µM
same,TGI,[9],> 100 µM
same,TGI,[10],> 100 µM
same,TGI,[11],> 100 µM
same,TGI,[12],> 100 µM
same,TGI,[13],> 100 µM
same,TGI,[14],> 100 µM
same,TGI,[15],> 100 µM
same,TGI,[16],> 100 µM
same,TGI,[17],> 100 µM
same,TGI,[18],> 100 µM
same,TGI,[19],> 100 µM
same,TGI,[20],> 100 µM
same,TGI,[21],> 100 µM
same,TGI,[22],> 100 µM
same,TGI,[23],> 100 µM
same,TGI,[24],> 100 µM
same,TGI,[25],> 100 µM
same,TGI,[26],> 100 µM
same,TGI,[27],> 100 µM
same,TGI,[28],> 100 µM
same,TGI,[29],> 100 µM
same,TGI,[30],> 100 µM
same,TGI,[31],> 100 µM
same,TGI,[32],> 100 µM
same,TGI,[33],> 100 µM
same,TGI,[34],> 100 µM
same,TGI,[35],> 100 µM
same,TGI,[36],> 100 µM
same,TGI,[37],> 100 µM
same,TGI,[59],> 100 µM
same,TGI,[38],> 100 µM
same,TGI,[39],> 100 µM
same,TGI,[40],> 100 µM
same,TGI,[41],> 100 µM
same,TGI,[42],> 100 µM
same,TGI,[43],> 100 µM
same,TGI,[44],> 100 µM
same,TGI,[45],> 100 µM
same,TGI,[46],> 100 µM
same,TGI,[47],> 100 µM
same,TGI,[48],> 100 µM
same,TGI,[49],> 100 µM
same,TGI,[50],> 100 µM
same,TGI,[51],> 100 µM
same,TGI,[52],> 100 µM
same,TGI,[53],> 100 µM
same,TGI,[54],> 100 µM
same,TGI,[55],> 100 µM
same,TGI,[56],> 100 µM
same,TGI,[57],> 100 µM
same,TGI,[58],> 100 µM
